The target in this assay is LSD1 (Homo sapiens (Human), UniProt O60341). Briefly: LSD1 Histone Demethylase Biochemical Assay (LANCE LSD1/KDM1A demethylase assay). As to conditions: 1 nM LSD-1 enzyme, 1 hour preincubation at 25° C., 0.4 μM Biotin-labeled Histone H3 peptide substrate. Here is the method:
LSD1 Histone Demethylase Biochemical Assay
LANCE LSD1/KDM1A demethylase assay-10 μL of 1 nM LSD-1 enzyme (ENZO BML-SE544-0050) in the assay buffer (50 mM Tris, pH 7.5, 0.01% Tween-20, 25 mM NaCl, 5 mM DTT) were preincubated for 1 hour at 25° C. with 0.8 μL compound/DMSO dotted in black 384 well polystyrene plates. […] Reactions were stopped by addition of 10 μL 1× LANCE Detection Buffer (PerkinElmer CR97-100) supplemented with 1.5 nM Eu-anti-unmodified H3K4 Antibody (PerkinElmer TRF0404), and 225 nM LANCE Ultra Streptavidin (PerkinElmer TRF102) along with 0.9 mM Tranylcypromine-HCl (Millipore 616431). After stopping the reactions plates were incubated for 30 minutes and read on a PHERAstar FS plate reader (BMG Labtech).
(In general: TR-FRET usually uses a lanthanide donor and a delayed reading to cut background.)

This note sets out measurements from patent publication US9695168B2 (Incyte Corporation, priority 2014, dated 2017).

pIC50: −log10 of the molar value.

Consider `CN1CCC[C@@H](COc2nc(-c3ccc(C#N)cc3)c(-c3ccc4c(c3)CC(=O)N4C)n3cncc23)C1` [Example 22, 4-(5-(1-methyl-2-oxo-2,3-dihydro-1H-indol-5-yl)-8-{[(3R)-1-methylpiperidin-3-yl]methoxy}imidazo[1,5-a]pyrazin-6-yl)benzonitrile], for which the pIC50 was 6.30 to 7.00. The result for `N#Cc1ccc(-c2cc(OC[C@@H]3CCNC3)c3cncn3c2-c2ccc(CN3CCOCC3)cc2)cc1` [Example 17, 4-{5-[4-(morpholin-4-ylmethyl)phenyl]-8-[(3R)-pyrrolidin-3-ylmethoxy]imidazo[1,5-a]pyridin-6-yl}benzonitrile] reads 7.00 to 7.30; that for `Cc1ncc(-c2c(-c3ccc(C#N)cc3)nc(OC[C@@H]3CCCN(C)C3)c3cncn23)cc1F` [Example 88, 4-(5-(5-fluoro-6-methylpyridin-3-yl)-8-{[(3R)-1-methylpiperidin-3-yl]methoxy}imidazo[1,5-a]pyrazin-6-yl)benzonitrile], 7.00 to 7.30; that for `CNC(=O)c1ccc(-c2c(-c3ccc(C#N)cc3)cc(OC[C@@H]3CCCN(C)C3)c3cncn23)cn1` [Example 135, 5-(6-(4-cyanophenyl)-8-{[(3R)-1-methylpiperidin-3-yl]methoxy}imidazo[1,5-a]pyridin-5-yl)-N-methylpyridine-2-carboxamide], 7.00 to 7.30. The result for `CC(C)c1nc2cc(-c3c(-c4ccc(C#N)cc4)cc(OC[C@@H]4CCCN(C)C4)c4cncn34)cnc2n1C` [Example 157, (R)-4-(5-(2-isopropyl-3-methyl-3H-imidazo[4,5-b]pyridin-6-yl)-8-((1-methylpiperidin-3-yl)methoxy)imidazo[1,5-a]pyridin-6-yl)benzonitrile] reads 6.30 to 7.00; that for `CCn1nnc2cc(-c3c(-c4ccc(C#N)cc4)cc(OC[C@@H]4CCCN(C)C4)c4cncn34)cnc21` [Example 117, 4-(5-(3-ethyl-3H-[1,2,3]triazolo[4,5-b]pyridin-6-yl)-8-{[(3R)-1-methylpiperidin-3-yl]methoxy}imidazo[1,5-a]pyridin-6-yl)benzonitrile], 7.00 to 7.30; that for `CNC(=O)c1ccc(-c2c(-c3ccc(C#N)cc3)nc(N3CCC(N(C)C)CC3)c3cncn23)cn1` [Example 141, 5-{6-(4-cyanophenyl)-8-[4-(dimethylamino)piperidin-1-yl]imidazo[1,5-a]pyrazin-5-yl}-N-methylpyridine-2-carboxamide], 6.30 to 7.00.

`CN(C)C1CCN(c2nc(-c3ccc(C#N)cc3)c(-c3cnc4ccoc4c3)n3cncc23)CC1` [Example 104, 4-(8-(4-(dimethylamino)piperidin-1-yl)-5-(furo[3,2-b]pyridin-6-yl)imidazo[1,5-a]pyrazin-6-yl)benzonitrile] had a pIC50 of 7.00 to 7.30. `CN(C)C1CCN(c2nc(-c3ccc(C#N)cc3)c(-c3cnc4cccnc4c3)n3cncc23)CC1` [Example 55, 4-[8-[4-(dimethylamino)piperidin-1-yl]-5-(1,5-naphthyridin-3-yl)imidazo[1,5-a]pyrazin-6-yl]benzonitrile] had a pIC50 of 7.00 to 7.30. The compound `CCN1CCC[C@@H](COc2cc(-c3ccc(C#N)cc3)c(-c3ccc(C)nc3)n3cncc23)C1` [Example 146, 4-[8-{[(3R)-1-ethylpiperidin-3-yl]methoxy}-5-(6-methylpyridin-3-yl)imidazo[1,5-a]pyridin-6-yl]benzonitrile] showed a pIC50 of 7.00 to 7.30. For `Cc1nn(C)c2ccc(-c3c(-c4ccc(C#N)cc4)nc(OC[C@@H]4CCCN(C)C4)c4cncn34)cc12` [Example 32, 4-(5-(1,3-dimethyl-1H-indazol-5-yl)-8-{[(3R)-1-methylpiperidin-3-yl]methoxy}imidazo[1,5-a]pyrazin-6-yl)benzonitrile] the value was 7.00 to 7.30; for `CN1CCC[C@@H](COc2cc(-c3ccc(C#N)cc3)c(-c3ccc(C(C)(C)C#N)nc3)n3cncc23)C1` [Example 132, 4-(5-[6-(1-cyano-1-methylethyl)pyridin-3-yl]-8-{[(3R)-1-methylpiperidin-3-yl]methoxy}imidazo[1,5-a]pyridin-6-yl)benzonitrile], 7.00 to 7.30; for `CC(O)CN1CCC[C@@H](COc2cc(-c3ccc(C#N)cc3)c(-c3cnc4c(c3)OCCO4)n3cncc23)C1` (stereo partly drawn) [Example 118, 4-(5-(2,3-dihydro[1,4]dioxino[2,3-b]pyridin-7-yl)-8-{[(3R)-1-(2-hydroxypropyl)piperidin-3-yl]methoxy}imidazo[1,5-a]pyridin-6-yl)benzonitrile], 7.00 to 7.30. For the compound `CN1CCC[C@@H](COc2nc(-c3ccc(C#N)cc3)c(-c3ccc4c(c3)oc(=O)n4C)n3cncc23)C1` [Example 21, 4-(5-(3-methyl-2-oxo-2,3-dihydro-1,3-benzoxazol-6-yl)-8-{[(3R)-1-methylpiperidin-3-yl]methoxy}imidazo[1,5-a]pyrazin-6-yl)benzonitrile], the pIC50 was 7.00 to 7.30. `COCc1cc(-c2c(-c3ccc(C#N)cc3)cc(OC[C@@H]3CCCN(C)C3)c3cncn23)cnc1C` [Example 147, 4-(5-[5-(methoxymethyl)-6-methylpyridin-3-yl]-8-{[(3R)-1-methylpiperidin-3-yl]methoxy}imidazo[1,5-a]pyridin-6-yl)benzonitrile] showed a pIC50 of 7.00 to 7.30.

The compound `CN1CCC[C@@H](COc2nc(-c3ccc(C#N)cc3)c(-c3ccc4ncsc4c3)n3cncc23)C1` [Example 33, 4-(5-(1,3-benzothiazol-6-yl)-8-{[(3R)-1-methylpiperidin-3-yl]methoxy}imidazo[1,5-a]pyrazin-6-yl)benzonitrile] had a pIC50 of 7.00 to 7.30. The result for `CN1CCC[C@@H](COc2cc(-c3ccc(C#N)cc3)c(-c3cnc4c(c3)nc(C3CC3)n4C)n3cncc23)C1` [Example 158, (R)-4-(5-(2-cyclopropyl-3-methyl-3H-imidazo[4,5-b]pyridin-6-yl)-8-((1-methylpiperidin-3-yl)methoxy)imidazo[1,5-a]pyridin-6-yl)benzonitrile] reads 6.30 to 7.00. Compound `Cc1ccc(-c2c(-c3ccc(F)cc3)cc(OC[C@@H]3CCNC3)c3cncn23)cc1` [Example 2, 6-(4-fluorophenyl)-5-(4-methylphenyl)-8-[(3R)-pyrrolidin-3-ylmethoxy]imidazo[1,5-a]pyridine] had a pIC50 of 6.00 to 6.30. Consider `CN1CCC[C@@H](COc2nc(-c3ccc(C#N)cc3)c(-c3cnc4c(cnn4C)c3)n3cncc23)C1` [Example 27, 4-[8-{[(3R)-1-methylpiperidin-3-yl]methoxy}-5-(1-methyl-1H-pyrazolo[3,4-b]pyridin-5-yl)imidazo[1,5-a]pyrazin-6-yl]benzonitrile], for which the pIC50 was 7.00 to 7.30.

With `CN1CCC[C@@H](COc2cc(-c3ccc(C#N)cc3)c(-c3cnc4c(c3)OCC(=O)N4C)n3cncc23)C1` [Example 152, (R)-4-(5-(4-methyl-3-oxo-3,4-dihydro-2H-pyrido[3,2-b][1,4]oxazin-7-yl)-8-((1-methylpiperidin-3-yl)methoxy)imidazo[1,5-a]pyridin-6-yl)benzonitrile], the pIC50 was 7.00 to 7.30. The result for `COC(=O)N(C)c1ccc(-c2c(-c3ccc(C#N)cc3)nc(OC[C@@H]3CCCN(C)C3)c3cncn23)cc1` [Example 46] reads 7.00 to 7.30. As for `CN1C(=O)Cc2cc(-c3c(-c4ccc(C#N)cc4)nc(N4CCC(N(C)C)CC4)c4cncn34)ccc21` [Example 52, 4-[8-[4-(dimethylamino)piperidin-1-yl]-5-(1-methyl-2-oxo-2,3-dihydro-1H-indol-5-yl)imidazo[1,5-a]pyrazin-6-yl]benzonitrile], the pIC50 is 7.00 to 7.30.

Usually pIC50 stands for the IC50 on a negative log10 scale, so that one unit is a factor of ten. Read a high pIC50 as a low IC50.
